The text below walks through data of ChEMBL document CHEMBL3046319, “PCR-RFLP detection of the E198A mutation conferring resistance to benzimidazoles in field isolates of Monilinia laxa from Greece” (Crop Prot, 2012).

The structures appear in SMILES notation. ≈ marks a conversion by molar mass, not a printed value. Calls of active or inactive are those of the source. The calls are words filed in the database; no cut-off is given here.

Test [1] concerns Monilinia laxa. The experiment in a line: Fungicidal activity against Monilinia laxa isolate MLK4A assessed as reduction in mycelial growth rate at 1 to 10 ug/ml at 31 degC after 5 days. Type of test: functional, organism-based.
For test [2], the system named is Monilinia laxa. Description: Fungicidal activity against Monilinia laxa isolate MLK6 assessed as reduction in mycelial growth rate at 1 to 10 ug/ml at 31 degC after 5 days. It is filed as functional, organism-based.
In test [3] the test system is Monilinia laxa. The experiment in a line: Fungicidal activity against Monilinia laxa isolate MLX3 assessed as reduction in mycelial growth rate at 25 degC after 4 days. It is filed as functional, organism-based. The note with it: isolate MLX3, 96 h.
The test system of test [4] is Monilinia laxa. The experiment in a line: Fungicidal activity against Monilinia laxa isolate B1 assessed as reduction in mycelial growth rate at 1 to 10 ug/ml at 31 degC after 5 days. It is filed as functional, organism-based.
In test [5] the test system is Monilinia laxa. Description: Fungicidal activity against Monilinia laxa isolate MLK12 assessed as mean number of conidia produced in the colony at 25 degC after 12 days by haemocytometer. It is filed as functional.
Test [6] concerns Monilinia laxa. Description: Fungicidal activity against Monilinia laxa isolate MLAl8 assessed as reduction in mycelial growth rate at 1 to 10 ug/ml at 25 to 28 degC. Type of test: functional, organism-based.
The subject of test [7] is Monilinia laxa. The experiment in a line: Fungicidal activity against Monilinia laxa isolate MLK4 assessed as reduction in mycelial growth rate at 25 degC after 4 days. Type of test: functional, organism-based. The note with it: isolate MLK4, 96 h.
Test [8] relates to Monilinia laxa. The experiment in a line: Fungicidal activity against Monilinia laxa isolate MLK2 assessed as reduction in mycelial growth rate at 1 to 10 ug/ml at 25 to 28 degC. Type of test: functional, organism-based.
For test [9], the system named is Monilinia laxa. The experiment in a line: Fungicidal activity against Monilinia laxa isolate MLX1 assessed as reduction in mycelial growth rate at 25 degC after 4 days. Type of test: functional, organism-based. The conditions noted are these: isolate MLX1, 96 h.
Test [10] deals with Monilinia laxa. The experiment in a line: Fungicidal activity against Monilinia laxa isolate MLX1 assessed as mycelial growth at 1 ug/ml at 25 degC after 4 days. It is filed as functional.
For test [11], the system named is Monilinia laxa. The experiment in a line: Fungicidal activity against Monilinia laxa isolate KX4 assessed as reduction in mycelial growth rate at 1 to 10 ug/ml at 31 degC after 5 days. Type of test: functional, organism-based.
In test [12] the test system is Monilinia laxa. The experiment in a line: Fungicidal activity against Monilinia laxa isolate MLK5 assessed as reduction in mycelial growth rate at 1 to 10 ug/ml at 31 degC after 5 days. It is filed as functional, organism-based.
The subject of test [13] is Monilinia laxa. Description: Fungicidal activity against Monilinia laxa isolate MLK24 assessed as reduction in mycelial growth rate at 1 to 10 ug/ml at 31 degC after 5 days. It is filed as functional, organism-based.
In test [14] the test system is Monilinia laxa. The experiment in a line: Fungicidal activity against Monilinia laxa isolate KX5 assessed as reduction in mycelial growth rate at 25 degC after 4 days. Type of test: functional, organism-based. The conditions noted are these: isolate KX5, 96 h.
In test [15] the test system is Monilinia laxa. The experiment in a line: Fungicidal activity against Monilinia laxa isolate MLX5 assessed as virulence in prune fruits assessed as virulence treated 10 min prior to mycelial inoculation at 24 degC after 10 days relative to isolate MLX1by pathogenicity bioassay. Type of test: functional.
The subject of test [16] is Monilinia laxa. Description: Fungicidal activity against Monilinia laxa isolate MLX5 assessed as reduction in mycelial growth rate at 1 to 10 ug/ml at 28 degC after 8 days. Type of test: functional, organism-based.
Test [17] has as its system Monilinia laxa. Description: Fungicidal activity against Monilinia laxa isolate MLC1 assessed as reduction in mycelial growth rate at 25 degC after 4 days. It is filed as functional, organism-based. The note with it: isolate MLC1, 96 h.
For test [18], the system named is Monilinia laxa. The experiment in a line: Fungicidal activity against Monilinia laxa isolate MLBO2 assessed as mean mycelial colony diameter at 25 degC after 4 days. Type of test: functional.
For test [19], the system named is Monilinia laxa. The experiment in a line: Fungicidal activity against Monilinia laxa isolate MLK1 assessed as reduction in mycelial growth rate at 1 to 10 ug/ml at 28 degC after 8 days. Type of test: functional, organism-based.
Test [20] concerns Monilinia laxa. The experiment in a line: Fungicidal activity against Monilinia laxa isolate MLK1 assessed as reduction in mycelial growth rate at 1 to 10 ug/ml at 25 to 28 degC. It is filed as functional, organism-based.
In test [21] the test system is Monilinia laxa. The experiment in a line: Fungicidal activity against Monilinia laxa isolate MLNS1 assessed as reduction in mycelial growth rate at 25 degC after 4 days. The conditions noted are these: isolate MLNS1, 96 h. It is filed as functional, organism-based.
Test [22] deals with Monilinia laxa. The experiment in a line: Fungicidal activity against Monilinia laxa isolate MLBO2 assessed as reduction in mycelial growth rate at 25 degC after 4 days. It is filed as functional, organism-based. The note with it: isolate MLBO2, 96 h.

`COC(=O)Nc1nc2ccccc2[nH]1` [CARBENDAZIM]: the inhibition entry in the test with Monilinia laxa [1], in the test on Monilinia laxa [2], in the test on Monilinia laxa [4], in the test on Monilinia laxa [11], in the test with Monilinia laxa [12] and in the test on Monilinia laxa [13] was “Active” throughout. The EC50 is > 50 µg/mL in the test on Monilinia laxa [3]; > 50 µg/mL with Monilinia laxa [7]; > 50 µg/mL with Monilinia laxa [9]; > 50 µg/mL in the test with Monilinia laxa [14]; 0.03 µg/mL (≈ 0.157 µM) in the test on Monilinia laxa [17]; > 50 µg/mL in the test with Monilinia laxa [21]. In addition, the EC50 in the test on Monilinia laxa [22] turned out to be 0.18 µg/mL (≈ 0.941 µM). The Activity with Monilinia laxa [5] is 4.7 /cm2; with Monilinia laxa [10] it was 100%; in the test on Monilinia laxa [15], 96.29%; in the test with Monilinia laxa [18], 30.2 mm. The inhibition entry in the test with Monilinia laxa [6], in the test with Monilinia laxa [8], in the test on Monilinia laxa [16], in the test with Monilinia laxa [19] and in the test with Monilinia laxa [20] was “inactive” in each case.

Broadly, the EC50 is the concentration at which the effect is half-maximal.
